# Results published in BindingDB's records for doi:10.1021/jm00015a023 (Research Triangle Institute, 1995).
# Columns and labels:
# [1] = Binding affinity was measured on Sigma receptor type 1 using [3H]- pentazocine as radioligand
# [2] = Binding affinity was measured on Sigma receptor type 2 using [3H]- DTG as radioligand
# [3] = Binding affinity was measured on Sigma receptor type 1 using [3H]- pentazocine as radioligand; remark: listed apart in the source
# [4] = molecular target: Sigma non-opioid intracellular receptor 1 (Homo sapiens, UniProt Q99720); assay: Binding affinity was measured on Sigma receptor type 1 using [3H]- pentazocine as radioligand
# Sigma non-opioid intracellular receptor 1, sequence (Q99720 whole entry): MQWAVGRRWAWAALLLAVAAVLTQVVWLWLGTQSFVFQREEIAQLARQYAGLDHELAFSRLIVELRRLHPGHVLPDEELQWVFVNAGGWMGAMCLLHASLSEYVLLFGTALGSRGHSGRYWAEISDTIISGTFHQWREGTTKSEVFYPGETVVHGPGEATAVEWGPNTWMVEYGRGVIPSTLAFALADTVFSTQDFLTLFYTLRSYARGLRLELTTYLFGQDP
Compound,Ki [1] [µM],Ki [2] [µM],Ki [3] [µM],Ki [4] [µM]
"CC1C2Cc3cc(Br)c(O)c(Br)c3C1(C)CCN2Cc1ccccc1 (stereo not given) [3-Benzyl-7,9-dibromo-6,11-dimethyl-1,2,3,4,5,6-hexahydro-2,6-methano-benzo[d]azocin-8-ol]",0.0706,2.01,,
"CC1C2Cc3cc(Cl)c(O)c(Cl)c3C1(C)CCN2Cc1ccccc1 (stereo not given) [3-Benzyl-7,9-dichloro-6,11-dimethyl-1,2,3,4,5,6-hexahydro-2,6-methano-benzo[d]azocin-8-ol]",,2.17,0.0715,
"CC1C2Cc3ccc(O)c(Br)c3C1(C)CCN2Cc1ccccc1 (stereo not given) [3-Benzyl-7-bromo-6,11-dimethyl-1,2,3,4,5,6-hexahydro-2,6-methano-benzo[d]azocin-8-ol]",,0.346,0.00175,
"CC1C2Cc3ccc(O)c(Cl)c3C1(C)CCN2Cc1ccccc1 (stereo not given) [3-Benzyl-7-chloro-6,11-dimethyl-1,2,3,4,5,6-hexahydro-2,6-methano-benzo[d]azocin-8-ol]",,0.764,0.00172,
"CC1C2Cc3cc(Br)c(O)cc3C1(C)CCN2Cc1ccccc1 (stereo not given) [3-Benzyl-9-bromo-6,11-dimethyl-1,2,3,4,5,6-hexahydro-2,6-methano-benzo[d]azocin-8-ol]",,1.22,0.0686,
"CC1C2Cc3cc(I)c(O)cc3C1(C)CCN2Cc1ccccc1 (stereo not given) [3-Benzyl-9-iodo-6,11-dimethyl-1,2,3,4,5,6-hexahydro-2,6-methano-benzo[d]azocin-8-ol]",,0.597,0.231,
"CC(C)=CCN1CCC2(C)c3c(cc(Br)c(O)c3Br)CC1C2C (stereo not given) [7,9-Dibromo-6,11-dimethyl-3-(3-methyl-but-2-enyl)-1,2,3,4,5,6-hexahydro-2,6-methano-benzo[d]azocin-8-ol]",,0.211,0.12,
"CC(C)=CCN1CCC2(C)c3c(ccc(O)c3Br)CC1C2C (stereo not given) [7-Bromo-6,11-dimethyl-3-(3-methyl-but-2-enyl)-1,2,3,4,5,6-hexahydro-2,6-methano-benzo[d]azocin-8-ol]",,0.283,0.00249,
"CC(C)=CCN1CCC2(C)c3c(ccc(O)c3Cl)CC1C2C (stereo not given) [7-Chloro-6,11-dimethyl-3-(3-methyl-but-2-enyl)-1,2,3,4,5,6-hexahydro-2,6-methano-benzo[d]azocin-8-ol]",,4.96,0.00262,
"CC(C)=CCN1CCC2(C)c3cc(O)c(Br)cc3CC1C2C (stereo not given) [9-Bromo-6,11-dimethyl-3-(3-methyl-but-2-enyl)-1,2,3,4,5,6-hexahydro-2,6-methano-benzo[d]azocin-8-ol]",,,,0.144
"CC(C)=CCN1CCC2(C)c3cc(O)c(I)cc3CC1C2C (stereo not given) [9-Iodo-6,11-dimethyl-3-(3-methyl-but-2-enyl)-1,2,3,4,5,6-hexahydro-2,6-methano-benzo[d]azocin-8-ol]",,,,0.0352
